The kinase profiling compilation of Christmann-Franck et al. (2016)

What was measured:
[1] = target: LRRK2 (human) (UniProt Q5S007); test: HTRF; settings: ATP 100 µM
[2] = target: LRRK2 (human), Q5S007 [G2019S]; test: HTRF; settings: ATP 100 µM
[3] = target: PRKCB1 (human) (UniProt P05771); test: SelectScreen, TR FRET
[4] = target: CDK2 CCNA2 (human) (UniProt P24941+P20248); test: SelectScreen, TR FRET
[5] = target: CDK5 CDK5R1 p25 (human) (UniProt Q15078+Q00535); test: SelectScreen, TR FRET
[6] = target: INSR (human) (UniProt P06213); test: SelectScreen, TR FRET
[7] = target: PTK2B (human) (UniProt Q14289); test: SelectScreen, TR FRET
[8] = target: ROCK2 (human) (UniProt O75116); test: SelectScreen, TR FRET
[9] = target: STK3 (human) (UniProt Q13188); test: SelectScreen, TR FRET
[10] = target: AKT1 (human) (UniProt P31749); test: SelectScreen, TR FRET
[11] = target: JAK1 JH1 JH2 (human) (UniProt P23458); test: SelectScreen, TR FRET
[12] = target: TTK (human) (UniProt P33981); test: SelectScreen, TR FRET
[13] = target: ERBB4 (human) (UniProt Q15303); test: SelectScreen, TR FRET
[14] = target: PLK1 (human) (UniProt P53350); test: SelectScreen, TR FRET
[15] = target: MAPK10 (human) (UniProt P53779); test: SelectScreen, TR FRET
[16] = target: PLK3 (human) (UniProt Q9H4B4); test: SelectScreen, TR FRET
[17] = target: STK16 (human) (UniProt O75716); test: SelectScreen, TR FRET
[18] = target: CAMK2A (human) (UniProt Q9UQM7); test: SelectScreen, TR FRET
[19] = target: MAPK1 (human) (UniProt P28482); test: SelectScreen, TR FRET
[20] = target: RAF1 (human) (UniProt P04049); test: SelectScreen, TR FRET
[21] = target: MAP3K7 TAB1 (human) (UniProt Q15750+O43318); test: SelectScreen, TR FRET
[22] = target: IRAK4 (human) (UniProt Q9NWZ3); test: SelectScreen, TR FRET
[23] = target: GSK3B (human) (UniProt P49841); test: SelectScreen, TR FRET
[24] = target: PDGFRA (human) (UniProt P16234); test: SelectScreen, TR FRET
[25] = target: FLT3 (human) (UniProt P36888); test: SelectScreen, TR FRET
[26] = target: LCK (human) (UniProt P06239); test: SelectScreen, TR FRET
[27] = target: PIK3CA PIK3R1 (human) (UniProt P27986+P42336); test: SelectScreen, TR FRET
[28] = target: DYRK1B (human) (UniProt Q9Y463); test: SelectScreen, TR FRET; settings: compound 10.0 µM
[29] = target: PAK4 (human) (UniProt O96013); test: SelectScreen, TR FRET; settings: compound 10.0 µM
[30] = target: RIPK2 (human) (UniProt O43353); test: SelectScreen, TR FRET; settings: compound 10.0 µM
[31] = target: LRRK2 (human) (UniProt Q5S007); test: SelectScreen, TR FRET; settings: compound 10.0 µM
[32] = target: CHEK1 (human) (UniProt O14757); test: SelectScreen, TR FRET; settings: compound 10.0 µM
[33] = target: AURKA (human) (UniProt O14965); test: SelectScreen, TR FRET; settings: compound 10.0 µM
[34] = target: MARK2 (human) (UniProt Q7KZI7); test: SelectScreen, TR FRET; settings: compound 10.0 µM
[35] = target: PLK2 (human) (UniProt Q9NYY3); test: SelectScreen, TR FRET; settings: compound 10.0 µM
[36] = target: ABL1 (human) (UniProt P00519); test: SelectScreen, TR FRET; settings: compound 10.0 µM
[37] = target: CSF1R (human) (UniProt P07333); test: SelectScreen, TR FRET; settings: compound 10.0 µM
[38] = target: SYK (human) (UniProt P43405); test: SelectScreen, TR FRET; settings: compound 10.0 µM
[39] = target: PRKACA (human) (UniProt P17612); test: SelectScreen, TR FRET; settings: compound 10.0 µM
[40] = target: CDK1 CCNB1 (human) (UniProt P06493+P14635); test: SelectScreen, TR FRET; settings: compound 10.0 µM
[41] = target: CLK1 (human) (UniProt P49759); test: SelectScreen, TR FRET; settings: compound 10.0 µM
[42] = target: RET (human) (UniProt P07949); test: SelectScreen, TR FRET; settings: compound 10.0 µM

STK16 (human), sequence (O75716 whole entry, looked up): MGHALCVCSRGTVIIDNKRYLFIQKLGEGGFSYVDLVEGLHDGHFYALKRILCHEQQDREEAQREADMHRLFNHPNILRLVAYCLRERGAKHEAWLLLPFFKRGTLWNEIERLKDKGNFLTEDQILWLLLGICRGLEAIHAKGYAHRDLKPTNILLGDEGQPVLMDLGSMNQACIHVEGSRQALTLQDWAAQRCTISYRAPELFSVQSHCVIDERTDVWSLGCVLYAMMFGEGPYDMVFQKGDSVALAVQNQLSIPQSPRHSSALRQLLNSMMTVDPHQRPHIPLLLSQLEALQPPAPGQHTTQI
CDK2 CCNA2 (human), sequence (P20248 whole entry, looked up, other chains not shown): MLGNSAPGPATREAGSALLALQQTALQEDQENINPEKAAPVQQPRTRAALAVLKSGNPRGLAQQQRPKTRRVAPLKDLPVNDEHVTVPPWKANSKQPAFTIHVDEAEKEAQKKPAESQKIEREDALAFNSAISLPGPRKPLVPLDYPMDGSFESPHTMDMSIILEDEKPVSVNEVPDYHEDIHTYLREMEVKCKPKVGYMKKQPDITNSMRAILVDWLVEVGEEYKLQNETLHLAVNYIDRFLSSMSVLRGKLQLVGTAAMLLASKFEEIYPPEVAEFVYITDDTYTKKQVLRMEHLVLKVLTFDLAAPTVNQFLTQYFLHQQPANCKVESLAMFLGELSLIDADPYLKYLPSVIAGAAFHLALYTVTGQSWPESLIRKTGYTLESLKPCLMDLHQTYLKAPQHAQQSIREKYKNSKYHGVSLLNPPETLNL
PTK2B (human), sequence (Q14289 whole entry, looked up): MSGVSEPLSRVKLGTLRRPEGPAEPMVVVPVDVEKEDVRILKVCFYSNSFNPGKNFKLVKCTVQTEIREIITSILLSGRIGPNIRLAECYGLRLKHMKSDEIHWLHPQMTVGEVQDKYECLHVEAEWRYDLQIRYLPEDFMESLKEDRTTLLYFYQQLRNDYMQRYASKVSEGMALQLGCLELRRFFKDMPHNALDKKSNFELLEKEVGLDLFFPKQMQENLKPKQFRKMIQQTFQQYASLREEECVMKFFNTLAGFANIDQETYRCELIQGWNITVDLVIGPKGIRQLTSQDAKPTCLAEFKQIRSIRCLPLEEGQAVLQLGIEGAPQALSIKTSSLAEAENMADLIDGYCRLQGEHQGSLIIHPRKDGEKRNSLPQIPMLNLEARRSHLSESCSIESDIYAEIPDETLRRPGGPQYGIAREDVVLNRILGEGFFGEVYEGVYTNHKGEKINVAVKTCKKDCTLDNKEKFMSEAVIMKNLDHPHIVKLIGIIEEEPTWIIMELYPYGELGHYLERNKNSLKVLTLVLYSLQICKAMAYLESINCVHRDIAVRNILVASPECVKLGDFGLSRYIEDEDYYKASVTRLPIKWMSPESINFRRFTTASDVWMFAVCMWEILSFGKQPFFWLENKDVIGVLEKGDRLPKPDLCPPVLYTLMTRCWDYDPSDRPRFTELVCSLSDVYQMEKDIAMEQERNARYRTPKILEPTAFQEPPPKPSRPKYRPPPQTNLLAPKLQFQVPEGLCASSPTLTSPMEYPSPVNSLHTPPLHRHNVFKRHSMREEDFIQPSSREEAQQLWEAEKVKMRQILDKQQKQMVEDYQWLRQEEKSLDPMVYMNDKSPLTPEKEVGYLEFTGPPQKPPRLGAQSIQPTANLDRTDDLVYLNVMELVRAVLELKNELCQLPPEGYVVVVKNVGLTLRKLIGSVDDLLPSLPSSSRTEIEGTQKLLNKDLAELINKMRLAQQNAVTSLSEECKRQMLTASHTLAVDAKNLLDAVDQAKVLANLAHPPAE
TTK (human), sequence (P33981 whole entry, looked up): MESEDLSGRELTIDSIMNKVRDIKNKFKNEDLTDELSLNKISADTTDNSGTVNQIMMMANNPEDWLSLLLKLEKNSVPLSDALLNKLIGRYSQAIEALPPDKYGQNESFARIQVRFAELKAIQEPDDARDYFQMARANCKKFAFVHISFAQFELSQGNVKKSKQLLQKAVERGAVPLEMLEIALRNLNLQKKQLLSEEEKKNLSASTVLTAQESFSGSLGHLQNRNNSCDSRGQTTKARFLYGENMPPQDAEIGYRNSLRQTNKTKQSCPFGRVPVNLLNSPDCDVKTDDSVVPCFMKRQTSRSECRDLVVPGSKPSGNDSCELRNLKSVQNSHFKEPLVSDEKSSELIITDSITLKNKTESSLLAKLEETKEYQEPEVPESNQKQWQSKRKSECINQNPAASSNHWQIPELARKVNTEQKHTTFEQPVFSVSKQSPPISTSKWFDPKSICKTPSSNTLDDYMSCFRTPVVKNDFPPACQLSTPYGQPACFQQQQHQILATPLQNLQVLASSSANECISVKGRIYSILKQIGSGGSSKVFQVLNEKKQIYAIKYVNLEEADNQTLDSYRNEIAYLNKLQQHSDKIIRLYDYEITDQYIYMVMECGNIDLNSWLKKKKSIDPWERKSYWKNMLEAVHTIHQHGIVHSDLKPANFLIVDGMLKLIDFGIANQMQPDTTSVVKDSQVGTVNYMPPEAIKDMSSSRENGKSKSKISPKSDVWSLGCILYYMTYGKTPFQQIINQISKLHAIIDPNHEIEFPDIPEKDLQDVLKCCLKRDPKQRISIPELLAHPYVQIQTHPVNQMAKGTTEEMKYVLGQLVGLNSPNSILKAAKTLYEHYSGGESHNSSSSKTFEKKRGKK
PLK3 (human), sequence (Q9H4B4 whole entry, looked up): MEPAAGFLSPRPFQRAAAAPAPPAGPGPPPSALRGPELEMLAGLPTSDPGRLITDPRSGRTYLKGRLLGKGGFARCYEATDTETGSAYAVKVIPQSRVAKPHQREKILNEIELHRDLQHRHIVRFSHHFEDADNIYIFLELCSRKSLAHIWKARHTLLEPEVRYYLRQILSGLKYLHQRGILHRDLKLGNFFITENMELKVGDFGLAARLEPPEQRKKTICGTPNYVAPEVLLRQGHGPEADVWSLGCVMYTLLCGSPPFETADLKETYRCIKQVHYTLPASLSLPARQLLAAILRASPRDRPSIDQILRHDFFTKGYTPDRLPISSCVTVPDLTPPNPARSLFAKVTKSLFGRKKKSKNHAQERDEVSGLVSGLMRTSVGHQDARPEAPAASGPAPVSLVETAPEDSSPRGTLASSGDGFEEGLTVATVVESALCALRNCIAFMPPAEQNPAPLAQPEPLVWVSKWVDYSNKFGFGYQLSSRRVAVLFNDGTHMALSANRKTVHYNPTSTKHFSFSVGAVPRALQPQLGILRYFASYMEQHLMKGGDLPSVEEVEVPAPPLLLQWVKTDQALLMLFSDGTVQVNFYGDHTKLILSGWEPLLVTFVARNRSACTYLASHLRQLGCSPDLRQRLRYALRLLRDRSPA
PRKCB1 (human), sequence (P05771 whole entry, looked up): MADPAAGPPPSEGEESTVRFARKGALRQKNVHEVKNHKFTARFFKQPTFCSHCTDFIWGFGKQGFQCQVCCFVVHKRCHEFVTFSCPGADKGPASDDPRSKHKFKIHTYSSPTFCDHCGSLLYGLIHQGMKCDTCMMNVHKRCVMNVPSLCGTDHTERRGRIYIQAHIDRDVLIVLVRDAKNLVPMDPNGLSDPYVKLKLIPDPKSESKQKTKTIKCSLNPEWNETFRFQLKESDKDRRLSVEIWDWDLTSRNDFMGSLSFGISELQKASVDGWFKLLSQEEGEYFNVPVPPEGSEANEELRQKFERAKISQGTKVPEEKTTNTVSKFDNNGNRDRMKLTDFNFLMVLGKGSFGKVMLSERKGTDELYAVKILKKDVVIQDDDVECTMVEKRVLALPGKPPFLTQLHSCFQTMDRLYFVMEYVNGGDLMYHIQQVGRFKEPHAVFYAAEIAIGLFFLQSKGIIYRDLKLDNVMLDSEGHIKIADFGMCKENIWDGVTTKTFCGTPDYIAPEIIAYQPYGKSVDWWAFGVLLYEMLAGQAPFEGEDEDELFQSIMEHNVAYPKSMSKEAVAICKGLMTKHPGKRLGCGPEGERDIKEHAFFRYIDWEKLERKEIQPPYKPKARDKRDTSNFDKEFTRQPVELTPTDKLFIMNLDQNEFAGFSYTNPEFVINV
AKT1 (human), sequence (P31749 whole entry, looked up): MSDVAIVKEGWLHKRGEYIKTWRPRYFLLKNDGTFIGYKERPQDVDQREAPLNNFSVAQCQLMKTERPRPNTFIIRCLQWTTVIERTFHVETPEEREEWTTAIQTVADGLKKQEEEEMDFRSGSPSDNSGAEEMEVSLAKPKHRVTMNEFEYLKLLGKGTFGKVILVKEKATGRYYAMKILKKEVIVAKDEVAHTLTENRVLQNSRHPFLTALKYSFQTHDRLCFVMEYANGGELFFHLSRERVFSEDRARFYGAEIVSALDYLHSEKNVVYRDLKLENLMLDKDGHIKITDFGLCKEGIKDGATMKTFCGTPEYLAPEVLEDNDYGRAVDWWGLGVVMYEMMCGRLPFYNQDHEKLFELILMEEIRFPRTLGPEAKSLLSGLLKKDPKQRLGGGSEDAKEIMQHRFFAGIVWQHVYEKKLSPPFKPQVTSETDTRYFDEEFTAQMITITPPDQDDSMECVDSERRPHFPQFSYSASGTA
RAF1 (human), sequence (P04049 whole entry, looked up): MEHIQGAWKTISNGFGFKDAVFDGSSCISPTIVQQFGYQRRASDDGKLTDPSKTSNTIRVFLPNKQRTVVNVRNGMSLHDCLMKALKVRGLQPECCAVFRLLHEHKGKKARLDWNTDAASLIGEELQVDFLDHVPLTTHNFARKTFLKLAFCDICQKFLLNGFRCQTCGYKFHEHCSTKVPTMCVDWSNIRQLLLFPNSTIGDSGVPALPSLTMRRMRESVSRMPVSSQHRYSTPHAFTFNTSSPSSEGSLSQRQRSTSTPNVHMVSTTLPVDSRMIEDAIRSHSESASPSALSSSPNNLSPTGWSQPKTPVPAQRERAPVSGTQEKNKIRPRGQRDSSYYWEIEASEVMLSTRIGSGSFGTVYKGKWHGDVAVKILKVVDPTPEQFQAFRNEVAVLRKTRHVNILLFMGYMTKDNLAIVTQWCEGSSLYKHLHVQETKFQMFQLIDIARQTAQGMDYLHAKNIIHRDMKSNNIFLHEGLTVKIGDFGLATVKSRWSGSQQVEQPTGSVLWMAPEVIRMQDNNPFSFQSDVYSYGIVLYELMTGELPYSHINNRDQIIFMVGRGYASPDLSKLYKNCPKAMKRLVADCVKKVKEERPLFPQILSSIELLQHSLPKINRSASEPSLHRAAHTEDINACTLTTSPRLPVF

CC(C)Nc1c(C#N)cnc2cc(-c3cnn(C)c3)ccc12
IC50 [1]: 0.07 µM | IC50 [2]: 0.05 µM | inhibition ([3]; compound 1.0 µM): -7.3% | inhibition ([4]; compound 1.0 µM): 5.33% | inhibition ([5]; compound 1.0 µM): 12.4% | inhibition ([6]; compound 1.0 µM): 1.29% | inhibition ([7]; compound 1.0 µM): 12.2% | inhibition ([8]; compound 1.0 µM): 14.2% | inhibition ([9]; compound 1.0 µM): 15.4% | inhibition ([10]; compound 1.0 µM): -0.488% | inhibition ([11]; compound 1.0 µM): 2.9% | inhibition ([12]; compound 1.0 µM): -8.51% | inhibition ([13]; compound 1.0 µM): 4.52% | inhibition ([14]; compound 1.0 µM): 23.6% | inhibition ([15]; compound 1.0 µM): 4.47% | inhibition ([16]; compound 1.0 µM): 11.5% | inhibition ([17]; compound 1.0 µM): 10.1% | inhibition ([18]; compound 1.0 µM): 27.5% | inhibition ([19]; compound 1.0 µM): -2.05% | inhibition ([20]; compound 1.0 µM): 12.4%

CC(C)Nc1c(C#N)cnc2cc(-c3ccc(S(C)(=O)=O)cc3)ccc12
inhibition ([3]; compound 1.0 µM): 19.4% | inhibition ([4]; compound 1.0 µM): 11.7% | inhibition ([7]; compound 1.0 µM): 33.5% | inhibition ([21]; compound 1.0 µM): 7.1% | inhibition ([8]; compound 1.0 µM): 11.8% | inhibition ([10]; compound 1.0 µM): 9.66% | inhibition ([11]; compound 1.0 µM): 16.5% | inhibition ([22]; compound 1.0 µM): 29.4% | inhibition ([12]; compound 1.0 µM): -3.76% | inhibition ([15]; compound 1.0 µM): -11.1% | inhibition ([16]; compound 1.0 µM): 13.5% | inhibition ([17]; compound 1.0 µM): 3.38% | inhibition ([23]; compound 1.0 µM): 27.6% | inhibition ([24]; compound 1.0 µM): 33.4% | inhibition ([25]; compound 1.0 µM): 15.5% | inhibition ([19]; compound 1.0 µM): 9.79% | inhibition ([26]; compound 1.0 µM): 25.5% | inhibition ([20]; compound 1.0 µM): 3.26% | inhibition ([27]; compound 1.0 µM): -1.66%

C[C@@H](Nc1c(C#N)cnc2cc(-c3ccc(N4CCOC4=O)cc3)ccc12)C1CC1
IC50 [1]: 0.048 µM | IC50 [2]: 0.027 µM | inhibition ([3]; compound 10.0 µM): -1.79% | inhibition [28]: 23.7% | inhibition [29]: 19.3% | inhibition ([4]; compound 10.0 µM): 0.295% | inhibition ([5]; compound 10.0 µM): 5.49% | inhibition [30]: 55.8% | inhibition [31]: 81.3% | inhibition ([6]; compound 10.0 µM): 0.146% | inhibition ([7]; compound 10.0 µM): 15.9% | inhibition ([21]; compound 10.0 µM): -5.32% | inhibition ([8]; compound 10.0 µM): 16.4% | inhibition [32]: 30.7% | inhibition ([9]; compound 10.0 µM): 18.1% | inhibition [33]: 66.7% | inhibition [34]: 40.2% | inhibition [35]: 53.7% | inhibition ([10]; compound 10.0 µM): -1.71% | inhibition [36]: 29.9% | inhibition ([11]; compound 10.0 µM): 4.09% | inhibition [37]: 39.5% | inhibition ([22]; compound 10.0 µM): 9.89% | inhibition ([12]; compound 10.0 µM): 11.2% | inhibition ([13]; compound 10.0 µM): 6.95% | inhibition ([14]; compound 10.0 µM): 8.21% | inhibition ([15]; compound 10.0 µM): -17.1% | inhibition ([16]; compound 10.0 µM): 5.89% | inhibition [38]: 71% | inhibition [39]: -2.65% | inhibition ([17]; compound 10.0 µM): -24.1% | inhibition ([23]; compound 10.0 µM): 0.682% | inhibition ([24]; compound 10.0 µM): 4.67% | inhibition ([18]; compound 10.0 µM): 29.7% | inhibition ([25]; compound 10.0 µM): 44.5% | inhibition [40]: 11.7% | inhibition [41]: 6.88% | inhibition [42]: 11.8% | inhibition ([19]; compound 10.0 µM): -1.85% | inhibition ([26]; compound 10.0 µM): 18.4% | inhibition ([20]; compound 10.0 µM): 5.94% | inhibition ([27]; compound 10.0 µM): 13.5%
